Experimental data from patent US20210068395A1, “METHODS OF APPLYING ONE OR MORE CERTAIN HETEROARYL-1,2,4-TRIAZOLE AND HETEROARYL-TETRAZOLE COMPOUNDS TO CONTROL DAMAGE ON PLANTS, PROPAGATION MATERIAL THEREOF, AND PLANT DERIVED PRODUCTS” (SYNGENTA CROP PROTECTION AG, priority 2018, published 2021).

Legend:
Type in all cases: in vivo
[1] = tested on: Thrips tabaci (Onion thrips); test: Thrips tabaci feeding/contact activity; details: foliar, 144 h, application rate 200 ppm, sunflower leaf discs, 6 days after infestation, read-out: control in at least one of the two categories (mortality or anti-feeding)
Procedure: Sunflower leaf discs were placed on agar in 24-well microtiter plates and sprayed with aqueous test solutions prepared from 10,000 ppm DMSO stock solutions. After drying the leaf discs were infested with a thrips population of mixed ages. The samples were assessed for mortality, and anti-feeding 6 days after infestation.

[2] = tested on: Spodoptera littoralis (Egyptian Cotton Leaf Worm); test: Spodoptera littoralis feeding/contact activity; details: foliar, 72 h, application rate 200 ppm, L1 larvae on cotton leaf discs, 3 days after infestation, read-out: control in at least one of the three categories (mortality or growth inhibition or anti-feeding)
Procedure: Cotton leaf discs were placed onto agar in 24-well microtiter plates and sprayed with aqueous test solutions prepared from 10,000 ppm DMSO stock solutions. After drying the leaf discs were infested with five L1 larvae. The samples were assessed for mortality, anti-feeding and growth inhibition 3 days after infestation.

[3] = tested on: Plutella xylostella (Diamond Back Moth); test: Plutella xylostella feeding/contact activity, 24-well artificial diet; details: 192 h, application rate 200 ppm, 24-well artificial diet, 8 days after infestation, read-out: control in at least one of the two categories (mortality or growth inhibition)
Procedure: 24-well microtiter plates with artificial diet were treated with aqueous test solutions prepared from 10,000 ppm DMSO stock solutions by pipetting. After drying, Plutella eggs were pipetted through a plastic stencil onto a gel blotting paper and the plate was closed with it. The samples were assessed for mortality and growth inhibition in comparison to untreated samples 8 days after infestation.

[4] = tested on: Chrysodeixis includens (Soybean Looper); test: Chrysodeixis includens larvicide, feeding/contact; details: 120 h, test rate 50 ppm, L2 larvae on soybean leaves, 5 days after infestation, read-out: control in at least one of the two categories (mortality or growth inhibition)
Procedure: Soybean plants were treated in a spray chamber, cut off and placed into petri dishes containing wet filter paper. 1 d after application leaves were infested with 5 L2 larvae and covered with a fabric filter and plastic lids. 5 days after infestation the samples were assessed for mortality and growth inhibition.

[5] = tested on: Chilo suppressalis (Striped Stem Borer); test: Chilo suppressalis larvicide, feeding/contact; details: 120 h, test rate 200 ppm, L2 larvae on sprayed rice plants, 5 days after application
Procedure: Rice plants were treated in a spray chamber, cut off and placed into petri dishes containing wet filter paper. 10 L2 larvae were infested and covered up with a cotton filter and a lid. 5 days after application samples were assessed for mortality.

[6] = tested on: Carpocapsa (Cydia) Pomonella (Codling Moth); test: Carpocapsa (Cydia) pomonella larvicide, feeding/contact; details: 336 h, test rate 50 ppm, L1 larvae on diet cubes, 14 days after infestation, read-out: control in at least one of the two categories (mortality or growth inhibition)
Procedure: Diet cubes coated with paraffin were sprayed with diluted test solutions in an application chamber. After drying off the treated cubes (10 replicates) were infested with 1 L1 larvae. Samples were incubated at 26-27° C. and checked 14 days after infestation for mortality and growth inhibition.

[7] = tested on: Plutella xylostella (Diamond Back Moth); test: Plutella xylostella feeding/contact activity, 96-well artificial diet; details: 216 h, application rate 500 ppm, 9 days after infestation
Procedure: 1, 2, 3, 4, 17, 19, 23, 26, 39, 41, 42, 54, 55, 56 Plutella xylostella (Diamond Back Moth):Feeding/Contact Activity 96-well microtiter plates containing artificial diet were treated with aqueous test solutions, prepared from 10,000 ppm DMSO stock solutions, by a liquid handling robot. After drying, eggs (˜30 per well) were infested onto a netted lid which was suspended above the diet. The eggs hatch and L1 larvae move down to the diet. The samples were assessed for mortality 9 days after infestation.

[8] = tested on: Euschistus heros (Neotropical Brown Stink Bug); test: Euschistus heros feeding/contact activity; details: 120 h, application rate 200 ppm, N2 nymphs on soybean leaves, 5 days after infestation, read-out: control in at least one of the two categories (mortality or growth inhibition)
Procedure: Soybean leaves on agar in 24-well microtiter plates were sprayed with aqueous test solutions prepared from 10,000 ppm DMSO stock solutions. After drying the leaves were infested with N2 nymphs. The samples were assessed for mortality and growth inhibition 5 days after infestation.

[9] = tested on: Myzus persicae (Green Peach Aphid); test: Myzus persicae feeding activity (sucrose solution, Parafilm); details: 120 h, test rate 12.5 ppm, in sucrose solution, 5 days after infestation
Procedure: Test compounds prepared from 10,000 ppm DMSO stock solutions were applied by pipette into 24-well microtiter plates and mixed with sucrose solution. The plates were closed with a stretched Parafilm. A plastic stencil with 24 holes was placed onto the plate and infested pea seedlings were placed directly on the Parafilm. The infested plate was closed with a gel blotting paper and another plastic stencil and then turned upside down. The samples were assessed for mortality 5 days after infestation.

[10] = tested on: Myzus persicae (Green Peach Aphid); test: Myzus persicae systemic activity; details: 144 h, test rate 24 ppm, roots of pea seedlings in test solution, 6 days
Procedure: Roots of pea seedlings infested with an aphid population of mixed ages were placed directly into aqueous test solutions prepared from 10,000 DMSO stock solutions. The samples were assessed for mortality 6 days after placing seedlings into test solutions.

[11] = tested on: Diabrotica balteata (corn root worm); test: Diabrotica balteata (corn root worm), sprayed maize sprouts; details: 96 h, application rate 200 ppm, L2 larvae, 4 days after infestation, read-out: control in at least one of the two categories (mortality or growth inhibition)
Procedure: Maize sprouts placed onto an agar layer in 24-well microtiter plates were treated with aqueous test solutions prepared from 10,000 ppm DMSO stock solutions by spraying. After drying, the plates were infested with L2 larvae (6 to 8 per well). The samples were assessed for mortality and growth inhibition in comparison to untreated samples 4 days after infestation.

[12] = tested on: Myzus persicae (Green Peach Aphid); test: Myzus persicae feeding/contact activity; details: foliar, 144 h, application rate 200 ppm, sunflower leaf discs sprayed, 6 days after infestation
Procedure: Sunflower leaf discs were placed onto agar in a 24-well microtiter plate and sprayed with aqueous test solutions prepared from 10,000 ppm DMSO stock solutions. After drying, the leaf discs were infested with an aphid population of mixed ages. The samples were assessed for mortality 6 days after infestation.

[13] = tested on: Spodoptera littoralis (Egyptian Cotton Leaf Worm); test: Spodoptera littoralis systemic activity (lettuce); details: 144 h, test rate 12.5 ppm, root uptake in lettuce, 6 days after infestation, read-out: control in at least one of the three categories (mortality or growth inhibition or anti-feeding)
From the text: Test compounds were applied by pipette prepared from 10,000 ppm DMSO stock solutions into 24-well plates and mixed with agar. Lettuce seeds were placed onto the agar and the multi well plate was closed by another plate which contained also agar. After 7 days the compound was absorbed by the roots and the lettuce grew into the lid plate. The lettuce leaves were then cut off into the lid plate. Spodoptera eggs were pipetted through a plastic stencil onto a humid gel blotting paper and the lid plate was closed with it. The samples were assessed for mortality, anti-feeding and growth inhibition 6 days after infestation.

[14] = tested on: Nilaparvata lugens (Brown Plant Hopper); test: Nilaparvata lugens larvicide, feeding/contact; details: 168 h, test rate 200 ppm, N3 nymphs on sprayed rice plants, 7 days after treatment, read-out: control in at least one of the two categories (mortality or growth inhibition)
Procedure: Rice plants were treated with the diluted test solutions in a spray chamber. After drying plants were infested with ˜20 N3 nymphs. 7 days after the treatment samples were assessed for mortality and growth inhibition.

[15] = tested on: Nilaparvata lugens (Brown Plant Hopper); test: Nilaparvata lugens larvicide, systemic into water; details: 168 h, test rate 12.5 ppm, into nutritive solution of rice plants, N3 nymphs, 7 days after infestation, read-out: control in at least one of the two categories (mortality or growth inhibition)
Procedure: Rice plants cultivated in a nutritive solution were treated with the diluted test solutions into nourishing cultivation system. 1 day after application plants were infested with ˜20 N3 nymphs. 7 days after infestation samples were assessed for mortality and growth inhibition.

C[C@H](NC(=O)c1cc(C(F)(F)F)cc(C(F)(F)F)c1)c1ncnn1-c1ncccn1 [Compound 17]
≥ 80%: percent control (mortality, anti-feedant effect or growth inhibition) at 200 ppm [1] | percent control (mortality, anti-feedant effect or growth inhibition) at 200 ppm [2] | percent control (mortality or growth inhibition) at 200 ppm [3] | percent control (mortality or growth inhibition) at 50 ppm [4] | mortality at 200 ppm [5] | percent control (mortality or growth inhibition) at 50 ppm [6] | mortality at 500 ppm [7] | percent control (mortality or growth inhibition) at 200 ppm [8] | mortality at 12.5 ppm [9] | mortality at 24 ppm [10] | percent control (mortality or growth inhibition) at 200 ppm [11] | mortality at 200 ppm [12] | percent control (mortality, anti-feedant effect or growth inhibition) at 12.5 ppm [13]

CC(c1ncnn1-c1ncccn1)N(CC1CC1)C(=O)c1cc(Cl)cc(OC(F)(F)F)c1 (stereo not shown) [Compound 26]
≥ 80%: percent control (mortality, anti-feedant effect or growth inhibition) at 200 ppm [2] | percent control (mortality or growth inhibition) at 200 ppm [3] | percent control (mortality or growth inhibition) at 50 ppm [4] | mortality at 200 ppm [5] | percent control (mortality or growth inhibition) at 50 ppm [6] | mortality at 500 ppm [7] | percent control (mortality or growth inhibition) at 200 ppm [14] | mortality at 12.5 ppm [9] | percent control (mortality or growth inhibition) at 200 ppm [11] | percent control (mortality or growth inhibition) at 12.5 ppm [15] | mortality at 200 ppm [12] | percent control (mortality, anti-feedant effect or growth inhibition) at 12.5 ppm [13]

CCN(C(=O)c1cc(C(F)(F)F)cc(C(F)(F)F)c1)C(C)c1ncnn1-c1ncccn1 (stereo not shown) [Compound 39]
≥ 80%: percent control (mortality, anti-feedant effect or growth inhibition) at 200 ppm [1] | percent control (mortality, anti-feedant effect or growth inhibition) at 200 ppm [2] | percent control (mortality or growth inhibition) at 200 ppm [3] | percent control (mortality or growth inhibition) at 50 ppm [4] | mortality at 200 ppm [5] | percent control (mortality or growth inhibition) at 50 ppm [6] | mortality at 500 ppm [7] | percent control (mortality or growth inhibition) at 200 ppm [8] | percent control (mortality or growth inhibition) at 200 ppm [14] | mortality at 12.5 ppm [9] | mortality at 24 ppm [10] | percent control (mortality or growth inhibition) at 200 ppm [11] | percent control (mortality or growth inhibition) at 12.5 ppm [15] | mortality at 200 ppm [12] | percent control (mortality, anti-feedant effect or growth inhibition) at 12.5 ppm [13]

CC(c1ncnn1-c1ccccn1)N(CC1CC1)C(=O)c1cc(C(F)(F)F)cc(C(F)(F)F)c1 (stereo not shown) [Compound 74]
≥ 80%: percent control (mortality, anti-feedant effect or growth inhibition) at 200 ppm [2] | percent control (mortality or growth inhibition) at 200 ppm [3] | percent control (mortality or growth inhibition) at 50 ppm [4] | mortality at 200 ppm [5] | percent control (mortality or growth inhibition) at 50 ppm [6] | mortality at 500 ppm [7] | percent control (mortality or growth inhibition) at 200 ppm [11] | percent control (mortality or growth inhibition) at 12.5 ppm [15] | percent control (mortality, anti-feedant effect or growth inhibition) at 12.5 ppm [13]
